21 compounds from ChEMBL document CHEMBL1201862, “PubChem BioAssay data set” (2004) can be followed below.

The target of experiment [1] is Heat shock protein HSP 90-alpha (Homo sapiens, UniProt P07900). Format: functional, organism-based.
In experiment [2] the target is T1, Corticotropin-releasing factor receptor 2/Corticotropin-releasing factor-binding protein (Homo sapiens, UniProt P24387+Q13324).
T1 sequence (Q13324 whole entry): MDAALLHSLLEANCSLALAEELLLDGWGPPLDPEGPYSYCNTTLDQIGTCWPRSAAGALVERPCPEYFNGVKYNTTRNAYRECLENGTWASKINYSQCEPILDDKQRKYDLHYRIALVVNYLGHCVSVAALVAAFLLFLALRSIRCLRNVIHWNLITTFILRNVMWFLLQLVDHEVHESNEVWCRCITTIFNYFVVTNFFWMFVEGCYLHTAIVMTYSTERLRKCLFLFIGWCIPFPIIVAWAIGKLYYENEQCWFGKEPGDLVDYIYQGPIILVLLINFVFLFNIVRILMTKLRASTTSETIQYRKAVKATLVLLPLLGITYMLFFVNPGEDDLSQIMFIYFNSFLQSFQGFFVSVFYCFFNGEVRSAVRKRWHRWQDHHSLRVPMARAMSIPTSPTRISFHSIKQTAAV
T1 sequence (P24387 whole entry): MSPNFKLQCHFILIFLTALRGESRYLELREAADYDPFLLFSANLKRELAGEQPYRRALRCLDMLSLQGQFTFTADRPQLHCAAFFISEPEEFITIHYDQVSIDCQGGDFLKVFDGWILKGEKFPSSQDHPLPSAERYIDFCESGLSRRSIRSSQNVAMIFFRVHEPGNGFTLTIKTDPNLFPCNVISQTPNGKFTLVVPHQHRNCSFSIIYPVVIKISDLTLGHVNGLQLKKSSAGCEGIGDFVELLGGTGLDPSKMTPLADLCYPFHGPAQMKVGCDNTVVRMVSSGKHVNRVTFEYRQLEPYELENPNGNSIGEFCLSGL
Nature of the experiment: activators of CRF receptor 2 with binding protein – uHTS hits, confirmation (AID 602473). It is filed as functional. The following applies: read-out: EC50_Mean.

Experiment [3] has as its target Genome polyprotein (dengue virus type 2, UniProt P29990). Nature of the experiment: Dengue-2 NS5 methyltransferase inhibitors, primary screen, biochemical, confirmation dose response (AID 588689). Format: functional.
Experiment [4] can be described thus: inhibitors of firefly luciferase expression or activity, dose response, H4 neuroglioma cells, luminescence (AID 1990). Format: functional, cell-based.
Experiment [5] addresses T2, RNA-binding protein pos-1 (Caenorhabditis elegans, UniProt G5EF15).
T2 sequence (G5EF15 whole entry): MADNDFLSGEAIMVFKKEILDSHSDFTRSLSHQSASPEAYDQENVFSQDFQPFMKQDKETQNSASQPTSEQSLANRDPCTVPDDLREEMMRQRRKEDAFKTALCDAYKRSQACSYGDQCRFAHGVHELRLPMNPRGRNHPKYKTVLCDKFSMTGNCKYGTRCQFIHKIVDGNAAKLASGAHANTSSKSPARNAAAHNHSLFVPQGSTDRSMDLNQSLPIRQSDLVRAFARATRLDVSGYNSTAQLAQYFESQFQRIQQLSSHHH
Nature of the experiment: inhibitors of POS-1/mex-3 RNA binding, dose response, biochemical, fluorescence polarization (AID 1964).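 Further: purified POS-1 fused to maltose binding protein made in E. coli; potency of compounds blocking POS-1 binding to fluorescent RNA.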 On the technique in general: Polarisation of emitted light reports the rotation of a fluorescent probe.

A short description of experiment [6]: Luminescence Cell-Based Dose Response HTS to Identify Inhibitors of 5'UTR Stem-Loop Driven Prion Protein mRNA Translation in H4 Neuroglioblastoma Cells. [Related pubchem assays: 1827 (Project Summary), 1813 (Primary HTS)]. It is filed as functional.
In experiment [7] the target is T3, Zinc finger protein mex-5 (Caenorhabditis elegans, UniProt Q9XUB2).
T3 sequence (Q9XUB2 whole entry): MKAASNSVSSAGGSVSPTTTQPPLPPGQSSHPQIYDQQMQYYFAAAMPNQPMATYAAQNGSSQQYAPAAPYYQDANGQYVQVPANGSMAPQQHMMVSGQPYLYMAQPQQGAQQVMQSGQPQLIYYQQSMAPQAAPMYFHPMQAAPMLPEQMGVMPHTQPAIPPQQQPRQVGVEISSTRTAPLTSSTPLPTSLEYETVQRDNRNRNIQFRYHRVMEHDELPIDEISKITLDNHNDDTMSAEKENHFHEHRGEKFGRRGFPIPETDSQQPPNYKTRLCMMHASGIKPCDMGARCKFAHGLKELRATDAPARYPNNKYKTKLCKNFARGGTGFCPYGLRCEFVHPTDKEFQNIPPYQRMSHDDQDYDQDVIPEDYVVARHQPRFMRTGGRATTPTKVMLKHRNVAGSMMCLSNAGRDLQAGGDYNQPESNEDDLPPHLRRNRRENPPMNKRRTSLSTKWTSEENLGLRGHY
In words: MEX-5/TCR-2 RNA interaction inhibitors, dose response, biochemical, C. elegans, fluorescence polarization (AID 1960).

A short description of experiment [8]: inhibitors of SNCA 5'UTR-driven reporter translation, confirmation, H4 neuroglioma cells, luminescence (AID 1988). Format: functional, cell-based.
Experiment [9] has as its target Nonstructural protein 1 (Influenza A virus, UniProt Q194T2). Format: functional, Influenza A virus (A/California/07/2009(H1N1)).
Experiment [10] deals with T4, High affinity choline transporter 1 (Homo sapiens, UniProt Q9GZV3).
T4 sequence (Q9GZV3 whole entry): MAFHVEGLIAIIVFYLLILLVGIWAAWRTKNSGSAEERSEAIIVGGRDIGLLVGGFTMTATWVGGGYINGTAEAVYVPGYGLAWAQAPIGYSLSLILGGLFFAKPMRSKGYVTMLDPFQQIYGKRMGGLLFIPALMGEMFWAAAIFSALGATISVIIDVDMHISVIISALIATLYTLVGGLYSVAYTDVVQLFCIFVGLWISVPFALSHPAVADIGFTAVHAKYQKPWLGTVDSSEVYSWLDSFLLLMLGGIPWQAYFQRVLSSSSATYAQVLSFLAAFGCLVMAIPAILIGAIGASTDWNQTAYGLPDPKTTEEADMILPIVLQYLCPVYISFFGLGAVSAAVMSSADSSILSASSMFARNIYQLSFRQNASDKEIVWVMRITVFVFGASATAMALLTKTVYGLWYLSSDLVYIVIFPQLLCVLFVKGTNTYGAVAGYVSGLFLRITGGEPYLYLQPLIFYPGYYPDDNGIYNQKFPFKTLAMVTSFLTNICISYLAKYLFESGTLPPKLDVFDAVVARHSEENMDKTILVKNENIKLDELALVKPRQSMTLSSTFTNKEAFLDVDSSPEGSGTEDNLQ
Nature of the experiment: CHT inhibitors, dose response, cell-based, 5-point CRC, membrane potential dye (AID 504840). Format: functional.

A short description of experiment [11]: Shn3 3'UTR reporter inhibitors, dose response, cell-based, Clone20 osteoblasts, firefly luciferase, cherry-picked (AID 624132).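 Further: firefly luciferase luminescence from reporter carrying the Shn3 3'UTR in osteoblasts.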 Format: functional.
A short description of experiment [12]: control 3'UTR Renilla luciferase suppression, dose response, counter-screen for Shn3 inhibitor project, cell-based, Clone20-Shn3RL, cherry-picked (AID 624133). It is filed as functional. (In general: The purpose of a counterscreen is to sort out artefacts and off-target activity.)
Experiment [13] relates to HEK293. Nature of the experiment: inhibitors of LMP1-driven NF-kB reporter, dose response, cell-based, HEK293, luciferase, cherry-pick (AID 588343). The following applies: Homo sapiens. Format: functional.
Experiment [14] deals with Streptococcus sp. 'group A'. Nature of the experiment: growth inhibition of control SK(-) GAS strain, dose response, counter-screen for streptokinase expression inhibitor project, luminescence, kanamycin, BacTiterGlo, confirmation (AID 1900). It is filed as functional, organism-based.
The target in experiment [15] is T5, Streptokinase A (Streptococcus pyogenes serotype M1, UniProt P10520).
T5 sequence (P10520 whole entry): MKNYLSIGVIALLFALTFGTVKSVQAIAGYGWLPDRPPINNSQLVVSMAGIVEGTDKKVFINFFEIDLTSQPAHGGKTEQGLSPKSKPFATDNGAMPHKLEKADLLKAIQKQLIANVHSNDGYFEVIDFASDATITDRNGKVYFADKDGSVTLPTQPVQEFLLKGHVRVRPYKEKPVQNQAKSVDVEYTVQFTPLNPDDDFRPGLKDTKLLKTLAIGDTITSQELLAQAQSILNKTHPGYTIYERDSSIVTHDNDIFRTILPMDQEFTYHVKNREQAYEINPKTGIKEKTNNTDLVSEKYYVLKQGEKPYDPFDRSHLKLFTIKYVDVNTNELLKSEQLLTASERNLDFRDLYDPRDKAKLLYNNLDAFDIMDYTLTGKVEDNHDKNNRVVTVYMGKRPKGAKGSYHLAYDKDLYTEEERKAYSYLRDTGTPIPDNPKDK
Nature of the experiment: S. pyogenes streptokinase expression inhibitors, potency, dose response, plasminogen activation absorbance, OD405 (AID 1914).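 Further: secreted streptokinase activity via plasminogen activation per viability signal from cell pellet.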 It is filed as functional, Streptococcus pyogenes M1 GAS.

Experiment [16] in a line: inhibitors of intracellular T. cruzi replication, confirmation, NIH3T3 host cells, beta-gal luminescence (AID 2044).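 Further: intracellular parasites grown in NIH/3T3 mouse fibroblasts as host cells; luminescent beta-galactosidase reporter signal from transgenic T. cruzi replicating inside host cells; inhibitors lower the luminescence signal.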 Format: functional, cell-based.
The nature of experiment [17]: cytotoxicity toward NIH3T3 fibroblasts, dose response, counter-screen, cell-based, ATP luminescence, mouse fibroblasts (AID 2010).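 Further: cells exposed to compound for about 90 hours before reading.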 It is filed as functional.
Experiment [18] deals with Streptococcus. In words: Group A Streptococcus viability loss, dose response, counter-screen for streptokinase expression inhibitor project, luminescence, BacTiterGlo (AID 1915).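 Further: potency for reduction of bacterial viability or growth.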 It is filed as functional, organism-based.
Experiment [19] has as its system INS1. In words: beta cell apoptosis inhibitors, cytokine rescue, dose response, luminescence, retest (AID 449756).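 Further: cell death triggered by IL-1 beta plus TNF-alpha plus IFN-gamma mixture; protective hits raise ATP signal compared with cytokine alone wells.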 It is filed as functional, cell-based. The conditions noted are these: Rattus norvegicus.

The source made the active and inactive calls. For most assays here, no stated cut-off is given here; in the data, actives have a measured EC50 and inactives only a lower limit.

Sequence of Genome polyprotein (P29990 2492-3391 limits assumed): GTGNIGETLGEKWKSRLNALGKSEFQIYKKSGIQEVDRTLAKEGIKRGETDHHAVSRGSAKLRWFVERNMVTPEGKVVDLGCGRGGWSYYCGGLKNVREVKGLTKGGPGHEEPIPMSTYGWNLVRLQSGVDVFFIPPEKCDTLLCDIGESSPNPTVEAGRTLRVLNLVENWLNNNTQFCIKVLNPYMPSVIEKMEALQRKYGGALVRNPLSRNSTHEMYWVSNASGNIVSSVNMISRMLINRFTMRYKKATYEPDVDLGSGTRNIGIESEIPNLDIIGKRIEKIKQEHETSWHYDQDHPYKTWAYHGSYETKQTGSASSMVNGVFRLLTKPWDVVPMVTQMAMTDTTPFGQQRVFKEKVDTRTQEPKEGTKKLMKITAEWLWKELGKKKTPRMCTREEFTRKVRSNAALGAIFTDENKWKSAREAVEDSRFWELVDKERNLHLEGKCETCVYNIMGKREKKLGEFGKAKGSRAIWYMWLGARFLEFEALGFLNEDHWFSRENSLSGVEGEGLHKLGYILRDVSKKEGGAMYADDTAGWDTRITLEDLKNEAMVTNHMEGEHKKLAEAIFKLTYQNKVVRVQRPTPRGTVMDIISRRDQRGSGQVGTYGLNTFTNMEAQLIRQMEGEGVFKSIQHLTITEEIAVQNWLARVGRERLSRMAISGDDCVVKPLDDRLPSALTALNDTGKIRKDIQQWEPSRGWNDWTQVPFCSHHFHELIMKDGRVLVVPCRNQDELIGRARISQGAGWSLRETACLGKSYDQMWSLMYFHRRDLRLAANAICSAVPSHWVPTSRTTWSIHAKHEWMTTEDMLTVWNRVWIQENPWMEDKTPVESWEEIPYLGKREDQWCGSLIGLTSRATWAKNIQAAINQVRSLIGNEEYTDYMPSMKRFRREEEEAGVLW
Sequence of Nonstructural protein 1 (Q194T2 whole entry): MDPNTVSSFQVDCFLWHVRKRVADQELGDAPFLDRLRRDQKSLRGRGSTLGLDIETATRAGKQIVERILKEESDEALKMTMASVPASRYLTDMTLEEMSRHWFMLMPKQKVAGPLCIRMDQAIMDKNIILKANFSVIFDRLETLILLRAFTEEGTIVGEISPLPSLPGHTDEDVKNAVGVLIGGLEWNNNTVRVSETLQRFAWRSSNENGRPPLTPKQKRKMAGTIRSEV

Turning to `O=C(NCCCCc1ccccc1)c1ccc(Br)cc1`, the AC50 (commonly the midpoint of the concentration-response curve, whichever way the signal moves) in experiment [1] is 3.65 µM (active).

On to `CCCS(=O)(=O)c1nc(S(=O)(=O)c2ccc(C)cc2)c(N2CCCC2)s1`, for which the EC50 in experiment [2] is > 53 µM (inactive).

As for `C=CCN1C(=O)/C(=C/c2cccs2)C(=O)NC1=S`, the IC50 – broadly, the concentration needed to halve the response being measured – in experiment [3] was 43.8 µM (active). In the case of `CC(C)(C)OC(=O)N1CC=C2C(C#N)=C(N)C(C#N)(C#N)[C@H](c3cccnc3)[C@H]2C1`, the EC50 in [4] was > 120 µM (not active); in experiment [5], 61.7 µM (active); in experiment [6] it was > 120 µM (not active); in experiment [7], 54 µM (active); in [8], 60.3 µM (active). Moreover, the IC50 in experiment [3] is > 100 µM (active). For the compound `COc1ccc(S(=O)(=O)N2CCOCC2)cc1N=Nc1sc(N)nc1-c1ccccc1`, the EC50 was 14.7 µM (active) in experiment [4], > 120 µM (not active) in experiment [6] and 46.6 µM (active) in experiment [8]. For the same compound, in experiment [9], the IC50 is > 100 µM (active). With `CCN(CC)c1[nH]cnc2c3ccccc3nc1-2`, the IC50 in experiment [10] was 13.8 µM (active). Same read-out and setting: the figure for `CN(C)CCn1c(=S)[nH]c2ccccc2c1=O` is 13.2 µM (active). In the case of `CC1CN(C(=O)CCc2cc(C(C)(C)C)c(O)c(C(C)(C)C)c2)CC(C)O1` (stereo unspecified), the AC50 was 2.56 µM (active) in experiment [11] and 3.99 µM (active) in experiment [12]. As for `CCOC(=O)c1c(NC(=O)C(C)Sc2cccc[n+]2[O-])sc2c1CCN(Cc1ccccc1)C2` (stereo unspecified), the EC50 in experiment [2] is 4.81 µM (active). Regarding `COc1ccc(-c2cc(C(=O)N3CCN(c4ccccc4F)CC3)c3ccccc3n2)c(OC)c1`, the AC50 in [1] is 5.77 µM (active). The same measure, in the same setting: the figure for `CC1(c2nnc(Cc3ccccc3)o2)CC(c2ccccc2[N+](=O)[O-])=NO1` (stereo unspecified) is 1.59 µM (active). As to `COc1ccc(C2=CC(c3ccc(C)cc3)n3nnnc3N2)cc1` (stereo unspecified), the EC50 in [2] was > 53 µM (inactive).

For the compound `CCN1CCN(Cc2ccc(NC(=O)c3ccc(C)c(NC(=O)c4cccc(-c5cnnc(O)c5)c4)c3)cc2C(F)(F)F)CC1`, in experiment [13], the AC50 was 1.83 µM (active). As for `Cc1c(OCC(=O)C(C)(C)C)ccc2c(-c3ccccc3)cc(=O)oc12`, the half-maximal activity concentration (AC50) in experiment [1] is 7.83 µM (active). With `Oc1c(N=NC(S)=Nc2ccccc2F)c2ccccc2n1Cc1ccc(F)cc1`, the EC50 in [14] is 2.84 µM (active); in experiment [15] it was 0.607 µM (inconclusive); in [16] it was 1.06 µM (active); in experiment [17], 1.62 µM (active); in experiment [18], 17.8 µM (active). The AC50 in experiment [13] is 4.02 µM (active). As for `CCc1ccc([C@@H]2CC=C(C(=O)O)[C@H](c3ccc(C)cc3)N2S(=O)(=O)c2ccc(C)cc2)cc1`, in experiment [3], the IC50 was 41.2 µM (active). For `COc1ccc2c(c1)[C@H]1[C@H](CO2)[C@H](c2ccccc2)[C@]2(C)C(=O)Nc3ccc(C)cc3C(=O)N12`, the AC50 in [1] is 6.38 µM (active). In the case of `COc1ccccc1-c1sc2ccccc2c1-c1ccc(O)cc1`, the half-maximal activity concentration (AC50) in experiment [1] was 5.22 µM (active). `COc1ccc(C(=O)N/N=C/c2sc3ccccc3c2O)cc1`: the EC50 in experiment [4] was 12.7 µM (active); in [6], 11 µM (active); in [8], 10.2 µM (active). The AC50 was 2.68 µM (active) in experiment [1] and 1.8 µM (active) in [19]. For `Cc1ccc(-c2cs/c(=N\c3cccnc3)n2CCCn2ccnc2)cc1C`, the EC50 in experiment [16] was 0.118 µM (active); in experiment [17] it was > 60 µM (not active). Further, in experiment [13], the AC50 was 6.59 µM (active).

As to `O=[N+]([O-])c1cccc(-c2ccc(/C=N/Nc3nc(N4CCCCC4)nc(N4CCCCC4)n3)o2)c1`, the concentration at half-maximal activity (AC50) in experiment [13] was 96.7 µM (active).
